How the values were obtained:
[1] = tested on: leukemia cell line (K562); experiment: Inhibition on the proliferation of leukemia cell line K562, MTT; format: cell-based; conditions: for IC50: Homo sapiens, K562, 24 hours, MTT; for inhibitory activities on the proliferation of tumor cells: in words
Procedure: (§1) Inhibition on the vascularization of tumor (Test for the inhibition on the proliferation)
(§2) Human lymphocyte (HL), leukemia cell line (K562) and bovine artery endotheliocyte (BAE) were used for this experiment. HL (1×10^5 cells), leukemia cell line (K562) (2×10^5 cells) and BAE (5×10^3 cells) were cultured in a medium (HL, K562: RPMI 1640 medium containg 10% fetal bovine, BAE: DMEM medium containing 10% fetal bovine) containing intestinal flora metabolites of ginseng saponin concentrated with 2-fold dilution in 5% CO2 saturated with steam (HL, K562: 24 hours, BAE: 72 hours). The number of each survived cell was purified by MTT method to calculate 50% inhibition concentration (IC50), impaired rate of cells (IC50 (HL)/IC50 (BAE) and IC50 (K562)/IC50 (BAE).

[2] = tested on: leukemia cell line (P388); experiment: Antitumor activity of mouse spleen lymphocytes on leukemia cell line P388 (MTT); format: cell-based, mice; conditions: for activity at 2.5 µM: P388, 2.5 μM for 16 hours (Compound K 1.56, Compound Y 1.86, Ginsenoside Mc 1.86, 20(S)-protopanaxatriol 1.19 μg/ml), control 31.3%; for fold induction at 2.5 µM: P388, 16 h, read-out: Antitumor activity, times as high as control
Procedure: Antitumor activity on leukemia cell line (P388) in lymphocyte of mice
Spleen lymphocytes of mice and leukemia cell line (P388) were used for this experiment. Spleen lymphocytes (4×10^6 cells) and leukemia cells (P388) (2×10^8 cells) were cultured in a medium (RPMI 1640 supplemented with 20 μM mercaptoethanol and 10% fetal bovine serum) containing intestinal flora metabolite of ginseng saponin (2.5 μM) in 5% CO2 saturated with steam for 16 hours. Aside from this, same numbers of spleen lymphocytes or leukemia cell line were cultured in a medium containing intestinal flora metabolite of ginseng saponin in same is concentration as a control. The number of each survived cell was purified by MTT method to calculate impaired rate of cells on leukemia cells (P388) of lymphocytes.

[3] = tested on: Human adenosarcoma tissue cell (HT1080); experiment: Inhibition on the extravasation of basement membrane (haptoinvasion, matrigel/FN filter); format: cell-based; conditions: for IC50 / inhibition at 1 µM / inhibition at 10 µM / inhibition at 100 µM / inhibition at 1000 µM: Homo sapiens; for IC50: HT-1080, 4 h, 50% inhibition of extravasation, read-out: ED50 (50% extravasation-inhibitory concentration); for inhibition at 1 µM / inhibition at 10 µM / inhibition at 100 µM / inhibition at 1000 µM: HT-1080, read-out: Inhibition rate (%)
Procedure: Inhibition on the extravasation of basement membrane
The transwell culture chamber was used for this experiment with a haptoinvasion method (reference: Cancer Res., 47, 3239, (1987)). The lower side of a filter having a hole of 8.0 μm in diameter was coated with 5 μg of matrigel for the fabrication of matrigel/FN filter. Human […] tissue cell (HT1080), treated in the intestinal flora metabolite of ginseng saponin in a concentration of 1-1000 μM at 37° C. for 30 minutes, was charged to the upper side of each filter with 1×10^5 cells/100 μL. Then, said filters were added to 24-well plate having 600 μL of MEM medium supplemented with 0.1% bovine serum albumin and them cultured for 4-hour cultivation. After completing the cultivation, cells were fixed with methanol and stained with hematoxylin, a tissue staining agent. Following the removal of cells at the upper side with a cotton pole, cells infiltrating into the lower side were counted under microscope.

[4] = tested on: bovine artery endotheliocyte (BAE); experiment: Inhibition on the proliferation of bovine artery endotheliocyte (BAE), MTT; format: cell-based; conditions: for IC50: Bos taurus, BAE, 72 hours, MTT; for IC50 (C)/IC50 (BAE), C = HL: ratio IC50 (HL)/IC50 (BAE); for IC50 (C)/IC50 (BAE), C = K562: ratio IC50 (K562)/IC50 (BAE)
Procedure: as §1, §2

[5] = tested on: bovine artery endotheliocyte (BAE); experiment: Inhibition on the migration of bovine artery endotheliocyte (vascularization of tumor); format: cell-based; conditions: for Migration-inhibition (% control), IC10: at the 10% inhibitory concentration (IC10); for Migration-inhibition (% control), IC10 / Migration-inhibition (% control), IC50: 24 hours; for Migration-inhibition (% control), IC50: at the 50% inhibitory concentration (IC50)
Procedure: Inhibition on the vascularization of tumor (Test for the inhibition on the migration)
Bovine artery endotheliocyte (BAE) was used for this experiment. BAE (5×10^3 cells) was cultured in 6-well plate for 24 hours and cells attached to the plate were detached by a razor. Said medium was replaced by a new one and after one hour, a solution of intestinal flora metabolite of ginseng saponin was added to the desired inhibitory concentration of 10% and 50%, respectively for 24-hour cultivation. After completing the cultivation, cells were fixed with methanol, stained with Giemsa method and counted the cells migrated from the detached line under microscope.

Human lymphocyte (HL) = experiment: Inhibition on the proliferation of human lymphocyte (HL), MTT; format: cell-based; conditions: 24 hours
Procedure: as §1, §2

cancer cells = conditions: Japanese Patent No. 93-9123, Sato et al. 1994; cited from earlier work
[6] = Toxicity in animal experiments with rats and mice

| SMILES | IC50 [1] | activity at 2.5 µM [2] | fold induction at 2.5 µM [2] | No. of infiltrated cancer cell/field ([3]; 1 μM) | No. of infiltrated cancer cell/field ([3]; 10 μM) | No. of infiltrated cancer cell/field ([3]; 100 μM) | IC50 [3] | inhibition at 10 µM ([3]; 10 μM) | inhibition at 100 µM ([3]; 100 μM) | IC50 [4] | IC50 (C)/IC50 (BAE), C = HL [4] | IC50 (C)/IC50 (BAE), C = K562 [4] | Migration-inhibition (% control), IC10 [5] | Migration-inhibition (% control), IC50 [5] | IC50 (Human lymphocyte (HL)) | No. of infiltrated cancer cell/field ([3]; 1000 μM) | inhibition at 1000 µM ([3]; 1000 μM) | also measured |
| --- | --- | --- | --- | --- | --- | --- | --- | --- | --- | --- | --- | --- | --- | --- | --- | --- | --- | --- |
| CC(C)=CCC[C@](C)(O[C@@H]1O[C@H](CO)[C@@H](O)[C@H](O)[C@H]1O)[C@H]1CC[C@]2(C)[C@@H]1[C@H](O)C[C@@H]1[C@@]3(C)CC[C@H](O)C(C)(C)[C@@H]3CC[C@]12C [Compound K] | 26 µM | 51.5% | 1.6 | 73 ± 4 cell/field | 45 ± 9 cell/field | 0 cell/field | 3.2 µM | 62% | 100% | 28 µM | 1.7 | 1.6 | 4.6 % control | 43.2 % control | 45 µM |  |  | inhibition at 1 µM ([3]; 1 μM): 38%; inhibitory activity of migration ([5]; in words, control Suramin): more potent inhibitory activity of migration than Suramin |
| CC(C)=CCC[C@](C)(O[C@@H]1O[C@H](CO[C@@H]2OC[C@H](O)[C@H](O)[C@H]2O)[C@@H](O)[C@H](O)[C@H]1O)[C@H]1CC[C@]2(C)[C@@H]1[C@H](O)C[C@@H]1[C@@]3(C)CC[C@H](O)C(C)(C)[C@@H]3CC[C@]12C [Compound Y, 20-0-[α-L-arabinopyranosyl (1→6)-β-D-glucopyranosyl]-20(S)-protopanaxadiol] | 78 µM | 56.6% | 1.8 | 125 ± 7 cell/field | 92 ± 11 cell/field | 24 ± 2 cell/field | 31 µM | 21% | 62% | 32 µM | 2.6 | 2.6 | -3.7 % control | 28.9 % control | 83 µM | 0 cell/field | 100% |  |
| CC(C)=CCC[C@](C)(O[C@@H]1O[C@H](CO[C@@H]2OC[C@H](O)[C@H](O)[C@H]2O)[C@@H](O)[C@H](O)[C@H]1O)[C@H]1CC[C@]2(C)[C@@H]1[C@H](O)C[C@@H]1[C@@]3(C)CC[C@H](O[C@@H]4O[C@H](CO)[C@@H](O)[C@H](O)[C@H]4O[C@@H]4O[C@H](CO)[C@@H](O)[C@H](O)[C@H]4O)C(C)(C)[C@@H]3CC[C@]12C [ginsenoside Rb2] |  |  |  |  |  |  |  |  |  |  |  |  |  |  |  |  |  | inhibition of vascularization of tumors, extravasation and metastasis of cancer cells (cancer cells): inhibit the vascularization of tumors and extravasation of cancer cells including inhibitory actions on the metastatis of cancer cells |
| CC(C)=CCC[C@](C)(O[C@@H]1O[C@H](CO[C@@H]2O[C@@H](CO)[C@H](O)[C@H]2O)[C@@H](O)[C@H](O)[C@H]1O)[C@H]1CC[C@]2(C)[C@@H]1[C@H](O)C[C@@H]1[C@@]3(C)CC[C@H](O)C(C)(C)[C@@H]3CC[C@]12C [Ginsenoside Mc, 20-0-[α-L-arabinofuranosyl(1→6)-β-D-glucopyranosyl-20(S)-protopanaxadiol]] | 480 µM | 63.3% | 2 | 114 ± 12 cell/field | 44 ± 7 cell/field | 3 ± 1 cell/field | 7.6 µM | 62% | 97% | 26 µM | 8.5 | 18 | -1.6 % control | 30.0 % control | 220 µM | 0 cell/field | 100% | inhibitory activities on the proliferation of tumor cells [1]: exhibited inhibitory activities on the proliferation of tumor cells; inhibition at 1 µM ([3]; 1 μM): 3%; toxicity [6]: nearly negligible |
| Cc1ccc(C(=O)Nc2ccc(S(=O)(=O)O)c3cc(S(=O)(=O)O)cc(S(=O)(=O)O)c23)cc1NC(=O)c1cccc(NC(=O)Nc2cccc(C(=O)Nc3cc(C(=O)Nc4ccc(S(=O)(=O)O)c5cc(S(=O)(=O)O)cc(S(=O)(=O)O)c45)ccc3C)c2)c1 [Suramin, reference compound] |  |  |  |  |  |  |  |  |  |  |  |  | -3.8 % control | 37.1 % control |  |  |  |  |
| CC(C)=CCC[C@@](C)(O)[C@H]1CC[C@]2(C)[C@@H]1[C@H](O)C[C@@H]1[C@@]3(C)CC[C@H](O[C@@H]4O[C@H](CO)[C@@H](O)[C@H](O)[C@H]4O[C@@H]4O[C@H](CO)[C@@H](O)[C@H](O)[C@H]4O)C(C)(C)[C@@H]3CC[C@]12C [ginsenoside Rg3, 3-0-[β-D-glucopyranosyl(1→2)-β-D-glucopyranosyl]-20(R)-protopanaxadiol] |  |  |  |  |  |  |  |  |  |  |  |  |  |  |  |  |  | inhibition of vascularization of tumors, extravasation and metastasis of cancer cells (cancer cells): inhibit the vascularization of tumors and extravasation of cancer cells including inhibitory actions on the metastatis of cancer cells |
| CC(C)=CCC[C@](C)(O)[C@H]1CC[C@]2(C)[C@@H]1[C@H](O)C[C@@H]1[C@@]3(C)CC[C@H](O)C(C)(C)[C@@H]3[C@@H](O)C[C@]12C [20(S)-protopanaxatriol] | 49 µM | 82.4% | 2 | 103 ± 14 cell/field | 93 ± 7 cell/field | 18 ± 4 cell/field | 48 µM | 4% | 81% | 36 µM | 7.8 | 1.4 | -1.6 % control | 30.0 % control | 280 µM | 1 ± 1 cell/field | 99% | inhibitory activities on the proliferation of tumor cells [1]: exhibited inhibitory activities on the proliferation of tumor cells |

Reference: patent US5919770A, “Metabolites of ginseng saponins by human intestinal bacteria and its preparation for an anticancer” (Il Hwa Co., Ltd., priority 1996, dated 1999)
